Results on 28 compounds are retold here after patent US9051310B2, “Nicotinamide derivative or salt thereof” (FUJIFILM Corporation, priority 2011, dated 2015).

Assay [1] addresses T1, glutathione S-transferase (GST)-linked full-length human Syk protein (Homo sapiens, UniProt P43405).
T1 construct: glutathione S-transferase (GST)-linked full-length human Syk protein; purchased Carna Biosciences; host or cells: Baculovirus expression system
Kind of assay: Syk enzyme assay. Type of assay: biochemical. Conditions: 0.83 nM Syk, time-resolved fluorescence; read-out: IC50 of Syk-inhibitory activity. In short, it runs like this: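 Phosphotyrosine on a biotin-peptide substrate (0.5 μM) was read by time-resolved fluorescence at 615 and 665 nm with Eu-anti-pTyr antibody and APC-streptavidin after 1 h EDTA stop.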

Assay [2] deals with THP-1 cells (TNFα secretion on human IgG-coated plate). Briefly: TNFα generation assay. The class given is cell-based. Conditions: IFN-γ differentiated THP-1 cells, 7 hours, AlphaLISA, read-out: IC50 of TNFα generation inhibitory activity. The procedure, abridged:
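THP-1 cells were differentiated with 10 ng/ml IFN-γ for 2 days, then preincubated with compound for 30 min at room temperature. They were then plated at 5×10^4 cells/well on plates coated with human IgG (10 μg/ml). TNFα secreted over 7 h of culture was quantified by AlphaLISA.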
(In general: In Alpha technology, singlet oxygen from a donor bead excites a nearby acceptor bead.)

In the case of `CCC[C@@H](Nc1nc(Nc2cc(F)c3c(c2)c(OC)nn3C)c(C(N)=O)cc1F)[C@H](C)N` [Example 2-153, 6-(((2S,3R)-2-aminohexan-3-yl)amino)-5-fluoro-2-((7-fluoro-3-methoxy-1-methyl-1H-indazol-5-yl)amino)nicotinamide], the results for the IC50 in assay [1] and in assay [2] were under 10 nM and 130 to 200 nM, respectively.

For the compound `C[C@H](N)[C@H](Nc1nc(Nc2ccc3c(c2)c(N(C)C)nn3C)c(C(N)=O)cc1F)C1CC1` [Example 2-72, 6-(((1R,2S)-2-amino-1-cyclopropylpropyl)amino)-2-((3-(dimethylamino)-1-methyl-1H-indazol-5-yl)amino)-5-fluoronicotinamide], the IC50 is under 10 nM in assay [1] and 130 to 200 nM in assay [2].

For the compound `NC(=O)c1cc(F)c(N[C@@H]2CCCC[C@@H]2N)nc1Nc1ccc(F)cc1` [Example 2-441, 6-(((1R,2S)-2-aminocyclohexyl)amino)-5-fluoro-2-((4-fluorophenyl)amino) nicotinamide], the results for the IC50 in assay [1] and in assay [2] were under 10 nM and 130 to 200 nM, respectively.

With `COCCn1ncc2c(Nc3nc(N[C@H](C4CC4)[C@H](C)N)c(F)cc3C(N)=O)cc(F)cc21` [Example 2-377, 6-(((1R,2S)-2-amino-1-cyclopropylpropyl)amino)-5-fluoro-2-((6-fluoro-1-(2-methoxyethyl)-1H-indazol-4-yl)amino)nicotinamide], the IC50 in assay [1] is under 10 nM; in assay [2], 65 to 130 nM.

In the case of `C[C@H](N)[C@H](Nc1nc(Nc2ccc3c(cnn3CC(F)F)c2)c(C(N)=O)cc1F)C1CC1` [Example 2-71], the figures for the IC50 in assay [1] and in assay [2] were under 10 nM and under 65 nM, respectively.

For the compound `C[C@H](N)[C@H](Nc1nc(Nc2ccnc(N3CCOCC3)c2F)c(C(N)=O)cc1F)C1CC1` [Example 2-233, 6-(((1R,2S)-2-amino-1-cyclopropylpropyl)amino)-5-fluoro-2-((3-fluoro-2-morpholinopyridin-4-yl)amino)nicotinamide], the IC50 is 10 to 50 nM in assay [1] and 130 to 200 nM in assay [2].

As to `CCn1ncc2c(Nc3nc(N[C@H](COC)[C@H](C)N)c(F)cc3C(N)=O)cccc21` [Example 2-122, 6-(((2S,3S)-3-amino-1-methoxybutan-2-yl)amino)-2-((1-ethyl-1H-indazol-4-yl)amino)-5-fluoronicotinamide], the IC50 lay within 10 to 50 nM in assay [1] and 130 to 200 nM in assay [2].

In the case of `COc1cc(Nc2nc(N[C@H](C3CCC3)[C@H](C)N)c(F)cc2C(N)=O)ccn1` [Example 2-5, 6-(((1R,2S)-2-amino-1-cyclobutylpropyl)amino)-5-fluoro-2-((2-methoxypyridin-4-yl)amino)nicotinamide], the IC50 in assay [1] is under 10 nM; in assay [2] it was 65 to 130 nM.

As for `COC[C@@H](Nc1nc(Nc2cc(Cl)c3c(cnn3C)c2)c(C(N)=O)cc1F)[C@H](C)N` [Example 2-149, 6-(((2S,3S)-3-amino-1-methoxybutan-2-yl)amino)-2-((7-chloro-1-methyl-1H-indazol-5-yl)amino)-5-fluoronicotinamide], the IC50 is under 10 nM in assay [1] and 65 to 130 nM in assay [2].

For the compound `C[C@H](N)[C@H](Nc1nc(Nc2ccc3ncccc3c2)c(C(N)=O)cc1F)C1CCC1` [Example 2-8, 6-(((1R,2S)-2-amino-1-cyclobutylpropyl)amino)-5-fluoro-2-(quinolin-6-ylamino)nicotinamide], the IC50 was under 10 nM in assay [1] and under 65 nM in assay [2].

Turning to `NC(=O)c1cc(F)c(N[C@@H]2CCCC[C@@H]2N)nc1Nc1cnc(-n2nccn2)c(F)c1` [Example 2-67, 6-(((1R,2S)-2-aminocyolohexyl)amino)-5-fluoro-2-((5-fluoro-6-(2H-1,2,3-triazol-2-yl)pyridin-3-yl)amino)nicotinamide], the IC50 in assay [1] was 10 to 50 nM; in assay [2], 130 to 200 nM.

For `CC[C@H](N)[C@@H](C)Nc1nc(Nc2cnc(C)c(-n3nccn3)c2)c(C(N)=O)cc1F` [Example 2-33, 6-(((2R,3S)-3-aminopentan-2-yl)amino)-5-fluoro-2-((6-methyl-5-(2H-1,2,3-triazol-2-yl)pyridin-3-yl)amino)nicotinamide], the IC50 in assay [1] lay within 10 to 50 nM; in assay [2] it was 130 to 200 nM.

For `CC(C)C[C@@H](Nc1nc(Nc2ccc3c(c2)c(OC(F)F)nn3C)c(C(N)=O)cc1F)[C@H](C)N` [Example 2-172, 6-(((2S,3R)-2-amino-5-methylhexan-3-yl)amino)-2-((3-(difluoromethoxy)-1-methyl-1H-indazol-5-yl)amino)-5-fluoronicotinamide], the IC50 in assay [1] is under 10 nM; in assay [2], 130 to 200 nM.

Regarding `CNc1ncc(Nc2nc(N[C@H](C3CC3)[C@H](C)N)c(F)cc2C(N)=O)cc1F` [Example 2-274, 6-(((1R,2S)-2-amino-1-cyclopropylpropyl)amino)-5-fluoro-2-((5-fluoro-6-(methylamino)pyridin-3-yl)amino)nicotinamide], the results for the IC50 in assay [1] and in assay [2] were 10 to 50 nM and 130 to 200 nM, respectively.

For `Cc1cccc(Nc2nc(N[C@@H]3CCCC[C@@H]3N)c(F)cc2C(N)=O)c1` [Example 2-434, 6-(((1R,2S)-2-aminocyclohexyl)amino)-5-fluoro-2-(m-tolylamino)nicotinamide], the IC50 in assay [1] was under 10 nM; in assay [2], 65 to 130 nM.

As to `Cc1nn(C)c2ncc(Nc3nc(N[C@@H](CN)CC(C)C)c(F)cc3C(N)=O)cc12` [Example 2-240, (R)-6-((1-amino-4-methylpentan-2-yl)amino)-2-((1,3-dimethyl-1H-pyrazolo[3,4-b]pyridin-5-yl)amino)-5-fluoronicotinamide], the IC50 was under 10 nM in assay [1] and 130 to 200 nM in assay [2].

On to `Cc1cc(C)cc(Nc2nc(N[C@H](C3CCC3)[C@H](C)N)c(F)cc2C(N)=O)c1` [Example 2-26, 6-(((1R,2S)-2-amino-1-cyclobutylpropyl)amino)-2-((3,5-dimethylphenyl)amino)-5-fluoronicotinamide], for which the IC50 in assay [1] was under 10 nM; in assay [2], 130 to 200 nM.

On to `CCC[C@@H](Nc1nc(Nc2cnc(C)c(F)c2)c(C(N)=O)cc1F)[C@H](C)N` [Example 2-223, 6-(((2S,3R)-2-aminohexan-3-yl)amino)-5-fluoro-2-((5-fluoro-6-methylpyridin-3-yl)amino)nicotinamide], for which the IC50 in assay [1] is under 10 nM; in assay [2], 130 to 200 nM.

Regarding `CC(=O)c1cc(Nc2nc(N[C@@H]3CCCC[C@@H]3N)c(F)cc2C(N)=O)cnc1C` [Example 2-518, 2-((5-acetyl-6-methylpyridin-3-yl)amino)-6-(((1R,2S)-2-aminocyclohexyl)amino)-5-fluoronicotinamide], the IC50 in assay [1] was under 10 nM; in assay [2], 65 to 130 nM.

For the compound `NC(=O)c1cc(F)c(N[C@@H]2CCCC[C@@H]2N)nc1Nc1cccc(F)c1` [Example 2-440, 6-(((1R,2S)-2-aminocyclohexyl)amino)-5-fluoro-2-((3-fluorophenyl)amino) nicotinamide], the results for the IC50 in assay [1] and in assay [2] were under 10 nM and 130 to 200 nM, respectively.

In the case of `CC[C@H](N)[C@@H](CC)Nc1nc(Nc2ccc3c(cnn3CCOC)c2)c(C(N)=O)cc1F` [Example 2-266, 6-(((3R,4S)-4-aminohexan-3-yl)amino)-5-fluoro-2-((1-(2-methoxyethyl)-1H-indazol-5-yl)amino)nicotinamide], the IC50 in assay [1] was under 10 nM; in assay [2], 65 to 130 nM.

On to `COc1nn(C)c2ccc(Nc3nc(N[C@@H]4CCOC[C@@H]4N)c(F)cc3C(N)=O)cc12` [Example 2-210, 6-(((3R,4R)-3-aminotetrahydro-2H-pyran-4-yl)amino)-5-fluoro-2-((3-methoxy-1-methyl-1H-indazol-5-yl)amino)nicotinamide], for which the IC50 is under 10 nM in assay [1] and under 65 nM in assay [2].

Consider `Cc1ncc(Nc2nc(N[C@H](C3CC3)[C@H](C)N)c(F)cc2C(N)=O)cc1F` [Example 2-220, 6-(((1R,2S)-2-amino-1-cyclopropylpropyl)amino)-5-fluoro-2-((5-fluoro-6-methylpyridin-3-yl)amino)nicotinamide], for which the IC50 lay within 10 to 50 nM in assay [1] and 130 to 200 nM in assay [2].

For the compound `Cc1ccc(Nc2nc(N[C@@H]3CCCC[C@@H]3N)c(F)cc2C(N)=O)cc1C` [Example 2-436, 6-(((1R,2S)-2-aminocyclohexyl)amino)-2-((3,4-dimethylphenyl)amino)-5-fluoronicotinamide], the IC50 in assay [1] was under 10 nM; in assay [2] it was 130 to 200 nM.

Regarding `CCn1ncc2c(Nc3nc(N[C@H](C4CC4)[C@H](C)N)c(F)cc3C(N)=O)cc(F)cc21` [Example 2-372, 6-(((1R,2S)-2-amino-1-cyclopropylpropyl)amino)-2-((1-ethyl-6-fluoro-1H-indazol-4-yl)amino)-5-fluoronicotinamide], the IC50 in assay [1] was under 10 nM; in assay [2] it was 130 to 200 nM.

For the compound `NC(=O)c1cc(F)c(N[C@@H]2CCCC[C@@H]2N)nc1Nc1cccc(-n2nccn2)c1` [Example 2-437, 2-((3-(2H-1,2,3-triazol-2-yl)phenyl)amino)-6-(((1R,2S)-2-aminocyclohexyl)amino)-5-fluoronicotinamide], the values for the IC50 in assay [1] and in assay [2] were under 10 nM and 65 to 130 nM, respectively.

Turning to `CCCC[C@@H](Nc1nc(Nc2ccc3cnn(C)c3c2)c(C(N)=O)cc1F)[C@H](C)N` [Example 2-38, 6-(((2S,3R)-2-aminoheptan-3-yl)amino)-5-fluoro-2-((1-methyl-1H-indazol-6-yl)amino)nicotinamide], the results for the IC50 in assay [1] and in assay [2] were under 10 nM and 65 to 130 nM, respectively.

For the compound `CCn1ncc2cc(Nc3nc(N[C@H](c4cccs4)[C@H](C)N)c(F)cc3C(N)=O)ccc21` [Example 2-416], the IC50 in assay [1] is under 10 nM; in assay [2], under 65 nM.
